Experimental data as given in patent publication US11547697B2, “Heterocyclic compounds and uses thereof” (MILLENNIUM PHARMACEUTICALS, INC., priority 2009, dated 2023).
Where two headings read alike, the source gives them in different places.

Columns and labels:
p110α/p85α = p110α/p85α (Homo sapiens (Human), UniProt P42336); test: PI 3-Kinase (human) HTRF assay, p110α/p85α; assay type: biochemical; conditions: read-out: PI3K α IC50
p110β/p85α = p110β/p85α (Homo sapiens (Human), UniProt P42338); test: PI 3-Kinase (human) HTRF assay, p110β/p85α; assay type: biochemical; conditions: read-out: PI3K β IC50
p110γ = p110γ (Homo sapiens (Human), UniProt P48736); test: PI 3-Kinase (human) HTRF assay, p110γ; assay type: biochemical; conditions: read-out: PI3K γ IC50
[1] = system: tumor cells with a PI3Kα mutation (e.g., MDA-MB-361 and T47D); test: Proliferation of tumor cells with PI3Kα mutation; assay type: cell-based; conditions: Homo sapiens, T47D cells
p110δ/p85α = p110δ/p85α (Homo sapiens (Human), UniProt O00329); test: PI 3-Kinase (human) HTRF assay, p110δ/p85α; assay type: biochemical; conditions: in vitro; read-out: PI3K δ IC50
[2] = read-out: T47D proliferation IC50

p110α/p85α, sequence (P42336 whole entry): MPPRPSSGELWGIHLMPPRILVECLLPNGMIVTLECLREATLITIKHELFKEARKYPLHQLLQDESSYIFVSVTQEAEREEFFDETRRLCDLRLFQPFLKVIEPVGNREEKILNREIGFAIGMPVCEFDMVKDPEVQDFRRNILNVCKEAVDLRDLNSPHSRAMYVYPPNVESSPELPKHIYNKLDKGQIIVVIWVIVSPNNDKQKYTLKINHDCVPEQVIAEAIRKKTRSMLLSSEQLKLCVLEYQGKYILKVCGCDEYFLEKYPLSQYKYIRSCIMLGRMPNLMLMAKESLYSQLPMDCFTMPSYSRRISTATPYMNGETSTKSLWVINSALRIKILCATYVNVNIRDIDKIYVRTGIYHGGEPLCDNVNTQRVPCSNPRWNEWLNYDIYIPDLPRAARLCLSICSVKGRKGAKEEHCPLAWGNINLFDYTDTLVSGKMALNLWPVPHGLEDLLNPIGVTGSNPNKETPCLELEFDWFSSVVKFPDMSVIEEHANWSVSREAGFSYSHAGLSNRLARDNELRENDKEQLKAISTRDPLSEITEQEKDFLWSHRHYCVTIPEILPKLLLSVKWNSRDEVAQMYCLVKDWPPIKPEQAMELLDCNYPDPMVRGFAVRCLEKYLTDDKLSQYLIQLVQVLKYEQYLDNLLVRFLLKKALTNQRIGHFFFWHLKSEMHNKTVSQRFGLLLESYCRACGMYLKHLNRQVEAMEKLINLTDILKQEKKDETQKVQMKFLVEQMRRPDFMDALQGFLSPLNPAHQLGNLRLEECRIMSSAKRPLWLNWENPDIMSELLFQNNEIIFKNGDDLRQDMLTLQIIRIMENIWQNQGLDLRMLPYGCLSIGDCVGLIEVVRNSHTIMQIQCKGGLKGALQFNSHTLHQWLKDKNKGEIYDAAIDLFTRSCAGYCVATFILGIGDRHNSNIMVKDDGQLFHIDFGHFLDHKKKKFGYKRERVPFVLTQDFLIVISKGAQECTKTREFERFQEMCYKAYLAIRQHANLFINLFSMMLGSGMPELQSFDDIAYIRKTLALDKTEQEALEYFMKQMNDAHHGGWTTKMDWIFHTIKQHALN
p110α/p85α, sequence (P27986 whole entry partner): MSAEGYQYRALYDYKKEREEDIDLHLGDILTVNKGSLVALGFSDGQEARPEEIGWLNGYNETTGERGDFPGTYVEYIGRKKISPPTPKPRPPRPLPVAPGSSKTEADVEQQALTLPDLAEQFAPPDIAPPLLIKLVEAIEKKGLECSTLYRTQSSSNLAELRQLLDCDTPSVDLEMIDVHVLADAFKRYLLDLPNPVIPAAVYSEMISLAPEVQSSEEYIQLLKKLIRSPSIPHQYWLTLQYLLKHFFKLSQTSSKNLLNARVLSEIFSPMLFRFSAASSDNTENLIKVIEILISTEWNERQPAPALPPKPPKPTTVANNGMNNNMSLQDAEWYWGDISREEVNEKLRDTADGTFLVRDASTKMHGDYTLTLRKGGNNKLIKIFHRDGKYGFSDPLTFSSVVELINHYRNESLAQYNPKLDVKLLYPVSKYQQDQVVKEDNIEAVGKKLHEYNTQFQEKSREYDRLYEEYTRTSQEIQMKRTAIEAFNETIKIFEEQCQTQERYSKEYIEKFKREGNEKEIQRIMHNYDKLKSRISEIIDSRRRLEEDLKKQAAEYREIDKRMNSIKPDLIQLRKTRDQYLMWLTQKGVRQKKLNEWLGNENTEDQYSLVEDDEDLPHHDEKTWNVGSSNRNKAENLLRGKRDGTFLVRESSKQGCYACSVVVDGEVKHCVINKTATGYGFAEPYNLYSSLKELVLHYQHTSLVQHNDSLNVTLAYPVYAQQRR
p110γ, sequence (P48736 whole entry): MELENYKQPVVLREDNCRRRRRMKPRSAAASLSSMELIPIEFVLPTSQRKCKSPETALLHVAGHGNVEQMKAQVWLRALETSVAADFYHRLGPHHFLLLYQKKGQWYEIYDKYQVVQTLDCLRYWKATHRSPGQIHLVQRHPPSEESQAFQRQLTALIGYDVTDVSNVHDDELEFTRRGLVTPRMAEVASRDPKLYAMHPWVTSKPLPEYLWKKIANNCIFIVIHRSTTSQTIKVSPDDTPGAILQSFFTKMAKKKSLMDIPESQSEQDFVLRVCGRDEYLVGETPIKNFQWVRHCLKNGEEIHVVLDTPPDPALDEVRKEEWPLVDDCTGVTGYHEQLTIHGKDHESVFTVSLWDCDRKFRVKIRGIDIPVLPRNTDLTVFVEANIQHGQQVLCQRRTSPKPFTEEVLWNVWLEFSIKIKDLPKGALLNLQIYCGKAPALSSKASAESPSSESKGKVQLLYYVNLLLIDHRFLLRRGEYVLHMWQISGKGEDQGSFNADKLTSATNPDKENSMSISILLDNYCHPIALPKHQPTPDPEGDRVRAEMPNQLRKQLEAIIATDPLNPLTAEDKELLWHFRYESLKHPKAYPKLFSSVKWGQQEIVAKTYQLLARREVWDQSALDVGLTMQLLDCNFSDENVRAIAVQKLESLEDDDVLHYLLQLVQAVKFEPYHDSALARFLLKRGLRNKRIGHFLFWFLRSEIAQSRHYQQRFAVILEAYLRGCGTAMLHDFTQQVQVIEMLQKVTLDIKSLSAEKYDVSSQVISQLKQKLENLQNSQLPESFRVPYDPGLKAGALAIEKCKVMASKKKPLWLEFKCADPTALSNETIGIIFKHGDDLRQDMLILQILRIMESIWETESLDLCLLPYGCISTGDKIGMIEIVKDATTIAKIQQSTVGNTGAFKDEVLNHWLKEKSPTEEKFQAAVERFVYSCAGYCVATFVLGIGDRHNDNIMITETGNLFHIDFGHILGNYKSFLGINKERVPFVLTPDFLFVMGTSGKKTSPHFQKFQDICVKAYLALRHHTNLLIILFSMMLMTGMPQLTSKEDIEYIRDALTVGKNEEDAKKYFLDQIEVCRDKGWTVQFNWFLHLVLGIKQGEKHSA
p110β/p85α, sequence (P42338 whole entry): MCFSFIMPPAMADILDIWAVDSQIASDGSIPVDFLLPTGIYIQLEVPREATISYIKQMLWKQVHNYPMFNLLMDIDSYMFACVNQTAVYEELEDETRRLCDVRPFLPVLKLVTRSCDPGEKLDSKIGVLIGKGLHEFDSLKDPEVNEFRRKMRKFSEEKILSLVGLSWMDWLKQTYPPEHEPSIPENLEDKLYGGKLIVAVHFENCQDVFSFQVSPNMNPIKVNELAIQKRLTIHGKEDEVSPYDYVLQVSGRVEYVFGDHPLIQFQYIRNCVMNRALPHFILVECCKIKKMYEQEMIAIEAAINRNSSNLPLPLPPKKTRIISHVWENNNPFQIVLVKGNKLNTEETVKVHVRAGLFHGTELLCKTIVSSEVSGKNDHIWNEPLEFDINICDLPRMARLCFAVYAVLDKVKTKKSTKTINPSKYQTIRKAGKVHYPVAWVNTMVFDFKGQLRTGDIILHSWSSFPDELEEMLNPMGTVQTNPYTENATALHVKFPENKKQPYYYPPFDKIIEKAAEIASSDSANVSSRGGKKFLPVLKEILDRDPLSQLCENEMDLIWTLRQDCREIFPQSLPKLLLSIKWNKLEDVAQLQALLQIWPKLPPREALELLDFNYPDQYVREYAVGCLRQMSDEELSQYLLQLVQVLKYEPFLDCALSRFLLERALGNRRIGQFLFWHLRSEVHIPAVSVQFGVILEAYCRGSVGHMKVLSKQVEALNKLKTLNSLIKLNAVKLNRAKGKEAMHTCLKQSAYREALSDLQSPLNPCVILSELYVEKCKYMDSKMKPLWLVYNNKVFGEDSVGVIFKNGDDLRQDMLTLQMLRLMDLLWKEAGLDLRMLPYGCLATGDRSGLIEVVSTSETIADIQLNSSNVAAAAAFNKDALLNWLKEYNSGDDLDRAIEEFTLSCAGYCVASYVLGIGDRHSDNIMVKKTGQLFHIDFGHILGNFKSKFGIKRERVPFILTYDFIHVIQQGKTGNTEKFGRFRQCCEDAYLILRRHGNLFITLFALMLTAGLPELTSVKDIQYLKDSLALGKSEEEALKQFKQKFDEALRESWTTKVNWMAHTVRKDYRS
p110β/p85α, sequence (P27986 whole entry partner): as the sequence (P27986 whole entry partner) above
p110δ/p85α, sequence (O00329 whole entry): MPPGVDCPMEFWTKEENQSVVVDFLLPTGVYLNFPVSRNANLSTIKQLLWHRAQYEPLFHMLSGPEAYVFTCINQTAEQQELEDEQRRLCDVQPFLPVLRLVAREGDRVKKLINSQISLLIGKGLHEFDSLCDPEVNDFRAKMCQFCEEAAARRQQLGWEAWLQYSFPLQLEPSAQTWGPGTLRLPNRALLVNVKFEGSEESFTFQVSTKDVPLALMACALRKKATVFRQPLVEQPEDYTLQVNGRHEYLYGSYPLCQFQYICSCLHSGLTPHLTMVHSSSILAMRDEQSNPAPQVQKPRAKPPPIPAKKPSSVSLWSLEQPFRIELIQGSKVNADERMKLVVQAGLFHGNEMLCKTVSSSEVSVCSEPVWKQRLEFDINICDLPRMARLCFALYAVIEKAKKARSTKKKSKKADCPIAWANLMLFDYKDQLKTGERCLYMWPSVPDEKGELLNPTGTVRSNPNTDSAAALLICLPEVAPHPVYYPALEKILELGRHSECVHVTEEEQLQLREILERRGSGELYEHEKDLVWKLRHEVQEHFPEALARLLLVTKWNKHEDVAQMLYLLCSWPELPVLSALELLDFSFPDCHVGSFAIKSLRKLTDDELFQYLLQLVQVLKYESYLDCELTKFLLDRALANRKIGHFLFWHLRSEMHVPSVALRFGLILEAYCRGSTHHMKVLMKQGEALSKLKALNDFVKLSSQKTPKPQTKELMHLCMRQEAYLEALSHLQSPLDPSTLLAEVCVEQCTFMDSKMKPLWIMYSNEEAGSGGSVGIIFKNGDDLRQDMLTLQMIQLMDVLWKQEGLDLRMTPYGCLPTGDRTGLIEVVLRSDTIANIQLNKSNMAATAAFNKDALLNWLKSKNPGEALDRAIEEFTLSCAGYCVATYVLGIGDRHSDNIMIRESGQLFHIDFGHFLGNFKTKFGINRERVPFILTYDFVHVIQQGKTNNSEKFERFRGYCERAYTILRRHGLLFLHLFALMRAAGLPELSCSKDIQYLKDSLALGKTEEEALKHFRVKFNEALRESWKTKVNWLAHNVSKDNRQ
p110δ/p85α, sequence (P27986 whole entry partner): as the sequence (P27986 whole entry partner) above

Row | Structure (SMILES) | IC50 (p110α/p85α) [nM] | IC50 (p110β/p85α) [µM] | IC50 (p110γ) [nM] | IC50 ([1]; read-out: T47D proliferation) [µM] | IC50 (p110α/p85α; in vitro) [nM] | IC50 (p110β/p85α; in vitro) [µM] | IC50 (p110γ; in vitro) [nM] | IC50 [1, 2] [µM] | IC50 (p110δ/p85α) [µM]
1 | Nc1nc2cc(-c3ccc4ncc(-c5cnn(CCO)c5)nc4c3)ccc2o1 [compound 108] | < 100 | < 10 | < 100 | < 1 |  |  |  |  | 
2 | CN1CCN(c2cnc3ccc(-c4ccc5nc(N)sc5c4)cc3n2)CC1 [compound 115] | < 100 | < 0.1 | < 10000 | < 10 |  |  |  |  | 
3 | Nc1nc2cc(-c3ccc4ncc(N5CCOCC5)nc4c3)ccc2s1 [compound 116] | < 100 | < 1 | < 1000 | < 1 |  |  |  |  | 
4 | Nc1nc2ccc(-c3ccc4ncc(N5CCOCC5)nc4c3)cc2o1 [compound 117] | < 100 | < 1 | < 1000 | < 10 |  |  |  |  | 
5 | Nc1nc2cc(-c3ccc4ncc(N5CCNC(=O)C5)nc4c3)ccc2o1 [compound 135] | < 100 | < 1 | < 1000 | < 1 |  |  |  |  | 
6 | Nc1nc2cc(-c3ccc4ncn(CCO)c(=O)c4c3)ccc2o1 [compound 184] | < 100 | < 10 | < 1000 | < 10 |  |  |  |  | 
7 | NC(=O)[C@@H]1CCCN1c1cnc2ccc(-c3ccc4oc(N)nc4c3)cc2n1 [compound 257] |  |  |  |  | < 100 |  |  | < 10 | 
8 | NC(=O)[C@@H]1CCCN1C(=O)C1CN(c2cnc3ccc(-c4ccc5oc(N)nc5c4)cc3n2)C1 [compound 283] |  |  |  |  | < 100 |  | < 1000 | < 10 | 
9 | Nc1nc2cc(-c3ccc4ncc(N5CC(N6CCOCC6)C5)nc4c3)cc(F)c2o1 [compound 361] |  |  |  |  | < 100 | < 1 | < 1000 |  | < 10
10 | Cc1cc(-c2ccc3ncc(N4CC(N5CCOCC5)C4)nc3c2)cc2nc(N)oc12 [compound 365] |  |  |  |  | < 10000 | < 10 | < 10000 |  | < 10
11 | Nc1nc2cc(-c3ccc4ncc(N5CC(N)C5)nc4c3)ccc2o1 [compound 367] |  |  |  |  | < 1000 | < 1 | < 1000 |  | < 10
12 | Nc1nc2cc(-c3ccc4ncc(N5CC(N6CCOCC6)C5)nc4c3)c(F)cc2o1 [compound 373] |  |  |  |  | < 100 | < 10 | < 10000 |  | < 10
13 | Nc1nc2cc(-c3ccc4ncc(N5CC[C@H](N6CCOCC6)C5)nc4c3)ccc2o1 [compound 375] |  |  |  |  | < 1000 | < 10 | < 1000 |  | < 1
14 | Nc1nc2cc(-c3ccc4ncc(N5CC[C@@H](N6CCOCC6)C5)nc4c3)ccc2o1 [compound 376] |  |  |  |  | < 100 | < 10 | < 100 |  | < 10

Next, values leading:

Row | IC50 (p110α/p85α) [nM] | IC50 (p110β/p85α) [µM] | IC50 (p110γ) [nM] | IC50 ([1]; read-out: T47D proliferation) [µM] | IC50 (p110α/p85α; in vitro) [nM] | IC50 (p110β/p85α; in vitro) [µM] | IC50 (p110γ; in vitro) [nM] | IC50 [1, 2] [µM] | IC50 (p110δ/p85α) [µM] | Structure (SMILES)
15 | < 100 |  | < 1000 | < 10 |  |  |  |  |  | CC(=O)N1CCN(C(=O)c2cnc3ccc(-c4ccc5oc(N)nc5c4)cn23)CC1 [compound 113]
16 |  |  |  | < 1 |  |  |  |  |  | Nc1nc2cc(-c3ccc4ncc(C(=O)NC5CCC(O)CC5)n4c3)ccc2o1 (stereo not drawn) [compound 143]
17 | < 100 |  | < 10000 | < 10 |  |  |  |  |  | Nc1nc2cc(-c3ccc4ncc(C(=O)N5CCN(CCO)CC5)n4c3)ccc2o1 [compound 148]
18 | < 100 | < 10 |  | < 10 |  |  |  |  |  | CC(C)N1CCN(C(=O)c2cnc3ccc(-c4ccc5oc(N)nc5c4)cn23)CC1 [compound 160]
19 |  |  |  |  | < 100 | < 10 | < 10000 | < 10 |  | CC1CN(C(=O)c2cnc3ccc(-c4ccc5oc(N)nc5c4)cn23)CCO1 (stereo not drawn) [compound 201]
20 |  |  |  |  | < 100 | < 1 | < 1000 | < 10 |  | Nc1nc2cc(-c3ccc4ncc(N5CCN(C6CC6)CC5)nc4c3)ccc2o1 [compound 261]
21 |  |  |  |  | < 100 | < 1 | < 100 |  | < 10 | Nc1nc2cc(-c3ccc4ncc(C(=O)N5CCOCC5)n4c3)cc(Cl)c2o1 [compound 359]
22 |  |  |  |  | < 100 | < 1 | < 100 |  | < 10 | Nc1nc2cc(-c3ccc4ncc(C(=O)N5CCOCC5)n4c3)cc(F)c2o1 [compound 360]
23 |  |  |  |  | < 100 | < 10 | < 1000 |  | < 1 | Cc1cc(-c2ccc3oc(N)nc3c2)cc2c(C(=O)N3CCCC3)cnn12 [compound 368]
24 |  |  |  |  | < 1000 | < 10 | < 10000 |  | < 10 | Nc1nc2cc(-c3ccc4ncc(C(=O)N5CCOCC5)n4c3)c(F)cc2o1 [compound 372]
